Test results published in publication PMC6327044, “A chemical biology screen identifies a vulnerability of neuroendocrine cancer cells to SQLE inhibition” (Nature Communications, 2019).

Key:
Assay in all cases: cells
Parameters in all cases: species or system panel of 482 human cancer cell lines; ATPLite luminescence growth inhibition after treatment, nine-point dilution curve, 482 cancer cell lines, 384-well
Settings in all cases: 72 h, recommended growth medium
AU565_BREAST = system: AU565_BREAST
Procedure, shortened: (§1)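 Growth inhibition was measured across a panel of 482 cancer cell lines. Cells were plated at 500 cells per well in recommended growth media in black, tissue culture treated 384-well plates, centrifuged to equilibrate, and incubated 24 h before dosing. Compounds were tested as nine-point dilution curves for 72 h, with viability read by ATPLite luminescence relative to DMSO-treated controls.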

SNU16_STOMACH = system: SNU16_STOMACH
Procedure, shortened: as §1

KYSE520_OESOPHAGUS = system: KYSE520_OESOPHAGUS
Procedure, shortened: as §1

NCIH2405_LUNG = system: NCIH2405_LUNG
Procedure, shortened: as §1

[1] = system: OCILY3_HAEMATOPOIETIC_AND_LYMPHOID_TISSUE
Procedure, shortened: as §1

SNU620_STOMACH = system: SNU620_STOMACH
Procedure, shortened: as §1

NCIH2170_LUNG = system: NCIH2170_LUNG
Procedure, shortened: as §1

LK2_LUNG = system: LK2_LUNG
Procedure, shortened: as §1

SKNFI_AUTONOMIC_GANGLIA = system: SKNFI_AUTONOMIC_GANGLIA
Procedure, shortened: as §1

FARAGE_NS = system: FARAGE_NS
Procedure, shortened: as §1

NCIH1944_LUNG = system: NCIH1944_LUNG
Procedure, shortened: as §1

[2] = system: SUDHL6_HAEMATOPOIETIC_AND_LYMPHOID_TISSUE
Procedure, shortened: as §1

GI50 (SNU16_STOMACH): 27.3 nM
GI50 (SNU620_STOMACH): 1780 nM
GI50 (SKNFI_AUTONOMIC_GANGLIA): 15.1 nM
GI50 [2]: 78.9 nM
SMILES: CCN(C/C=C/C#CC(C)(C)C)Cc1cccc(OCc2cc(-c3ccsc3)cs2)c1 [NB-598]
GI50 (AU565_BREAST): 399000 nM
GI50 (KYSE520_OESOPHAGUS): 45500 nM
GI50 (NCIH2405_LUNG): 39.4 nM
GI50 [1]: 91.1 nM
GI50 (NCIH2170_LUNG): 608 nM
GI50 (LK2_LUNG): 22.4 nM
GI50 (FARAGE_NS): 14.2 nM
GI50 (NCIH1944_LUNG): 27.1 nM
